Data from the NIST ThermoML archive (doi:10.1016/j.tca.2012.06.011).
± gives the expanded uncertainty stated by the source.

Experiment: xn = mol fraction of the nth substance listed
Settings: 101 kPa, Liquid; for viscosity: Capillary tube (Ostwald / Ubbelohde) method; for mass density: Vibrating tube method

CN1CCNCC1 [N-methylpiperazine] + C1C[C@@H]2[C@H]3CC[C@H](C3)[C@@H]2C1
Settings | mass density, 298.15 K [kg/m3] | mass density, 303.15 K [kg/m3] | mass density, 308.15 K [kg/m3] | mass density, 313.15 K [kg/m3] | mass density, 323.15 K [kg/m3] | viscosity, 298.15 K [mPa·s] | viscosity, 303.15 K [mPa·s] | viscosity, 308.15 K [mPa·s] | viscosity, 313.15 K [mPa·s] | viscosity, 323.15 K [mPa·s]
x1 = 0.1337 | 925.63 ± 0.59 | 921.65 ± 0.59 | 917.65 ± 0.59 | 913.66 ± 0.58 | 905.68 ± 0.58 | 2.432 ± 0.036 | 2.214 ± 0.033 | 2.021 ± 0.03 | 1.844 ± 0.027 | 1.574 ± 0.023
x1 = 0.2543 | 920.97 ± 0.47 | 916.91 ± 0.46 | 912.83 ± 0.46 | 908.76 ± 0.46 | 900.62 ± 0.46 | 2.247 ± 0.032 | 2.051 ± 0.029 | 1.868 ± 0.027 | 1.694 ± 0.024 | 1.452 ± 0.021
x1 = 0.3678 | 916.92 ± 0.37 | 912.79 ± 0.36 | 908.63 ± 0.36 | 904.48 ± 0.36 | 896.19 ± 0.36 | 2.125 ± 0.029 | 1.925 ± 0.026 | 1.752 ± 0.024 | 1.583 ± 0.021 | 1.351 ± 0.018
x1 = 0.4768 | 913.25 ± 0.28 | 909.05 ± 0.28 | 904.83 ± 0.28 | 900.62 ± 0.28 | 892.2 ± 0.28 | 2.016 ± 0.027 | 1.822 ± 0.024 | 1.655 ± 0.022 | 1.492 ± 0.02 | 1.281 ± 0.017
x1 = 0.577 | 910.05 ± 0.23 | 905.8 ± 0.23 | 901.53 ± 0.23 | 897.26 ± 0.23 | 888.74 ± 0.23 | 1.943 ± 0.025 | 1.756 ± 0.023 | 1.583 ± 0.021 | 1.435 ± 0.018 | 1.237 ± 0.016
x1 = 0.672 | 907.32 ± 0.19 | 903.04 ± 0.19 | 898.72 ± 0.19 | 894.4 ± 0.19 | 885.79 ± 0.19 | 1.921 ± 0.024 | 1.708 ± 0.022 | 1.545 ± 0.02 | 1.399 ± 0.017 | 1.195 ± 0.015
x1 = 0.76 | 904.59 ± 0.16 | 900.27 ± 0.16 | 895.93 ± 0.16 | 891.58 ± 0.16 | 882.9 ± 0.17 | 1.893 ± 0.024 | 1.681 ± 0.021 | 1.512 ± 0.019 | 1.362 ± 0.017 | 1.162 ± 0.014
x1 = 0.8407 | 902.15 ± 0.15 | 897.92 ± 0.15 | 893.59 ± 0.15 | 889.24 ± 0.15 | 880.55 ± 0.15 | 1.894 ± 0.024 | 1.656 ± 0.021 | 1.502 ± 0.018 | 1.35 ± 0.016 | 1.154 ± 0.014
x1 = 0.9242 | 900.27 ± 0.13 | 895.92 ± 0.14 | 891.51 ± 0.14 | 887.11 ± 0.14 | 878.34 ± 0.14 | 1.877 ± 0.024 | 1.632 ± 0.02 | 1.467 ± 0.018 | 1.318 ± 0.016 | 1.116 ± 0.014
x1 = 1 | 899.28 ± 0.13 | 894.9 ± 0.13 | 890.5 ± 0.13 | 886.07 ± 0.13 | 877.28 ± 0.13 | 1.854 ± 0.024 | 1.583 ± 0.02 | 1.409 ± 0.017 | 1.258 ± 0.015 | 1.064 ± 0.013

C1C[C@@H]2[C@H]3CC[C@H](C3)[C@@H]2C1 [exo-tetrahydrodicyclopentadiene] + CCN(CC)CC
Settings | mass density, 298.15 K [kg/m3] | mass density, 303.15 K [kg/m3] | mass density, 308.15 K [kg/m3] | mass density, 313.15 K [kg/m3] | mass density, 323.15 K [kg/m3] | viscosity, 298.15 K [mPa·s] | viscosity, 303.15 K [mPa·s] | viscosity, 308.15 K [mPa·s] | viscosity, 313.15 K [mPa·s] | viscosity, 323.15 K [mPa·s]
x2 = 0 | 931.29 ± 0.76 | 927.38 ± 0.75 | 923.46 ± 0.75 | 919.54 ± 0.75 | 911.7 ± 0.74 | 2.8 ± 0.043 | 2.549 ± 0.039 | 2.332 ± 0.036 | 2.124 ± 0.033 | 1.811 ± 0.028
x2 = 0.1347 | 906.47 ± 0.64 | 902.17 ± 0.64 | 898.15 ± 0.64 | 894.12 ± 0.63 | 885.86 ± 0.63 | 2.034 ± 0.031 | 1.871 ± 0.028 | 1.714 ± 0.026 | 1.57 ± 0.024 | 1.36 ± 0.02
x2 = 0.2521 | 883.66 ± 0.56 | 879.54 ± 0.56 | 875.44 ± 0.55 | 871.32 ± 0.55 | 863.09 ± 0.54 | 1.535 ± 0.023 | 1.421 ± 0.021 | 1.324 ± 0.019 | 1.217 ± 0.018 | 1.063 ± 0.016
x2 = 0.365 | 861.16 ± 0.49 | 856.98 ± 0.49 | 852.8 ± 0.48 | 848.59 ± 0.48 | 840.22 ± 0.48 | 1.188 ± 0.017 | 1.109 ± 0.016 | 1.035 ± 0.015 | 0.955 ± 0.014 | 0.842 ± 0.012
x2 = 0.4709 | 839.56 ± 0.44 | 835.31 ± 0.43 | 831.04 ± 0.43 | 826.75 ± 0.43 | 818.22 ± 0.43 | 0.961 ± 0.014 | 0.893 ± 0.013 | 0.829 ± 0.012 | 0.77 ± 0.011 | 0.69 ± 0.01
x2 = 0.5711 | 818.66 ± 0.39 | 814.33 ± 0.39 | 809.98 ± 0.39 | 805.62 ± 0.38 | 796.93 ± 0.38 | 0.779 ± 0.011 | 0.738 ± 0.01 | 0.691 ± 0.01 | 0.649 ± 0.009 | 0.578 ± 0.008
x2 = 0.6683 | 798.2 ± 0.34 | 793.7 ± 0.34 | 789.27 ± 0.34 | 784.85 ± 0.34 | 775.97 ± 0.34 | 0.653 ± 0.009 | 0.618 ± 0.008 | 0.583 ± 0.008 | 0.547 ± 0.008 | 0.492 ± 0.007
x2 = 0.7585 | 778.5 ± 0.31 | 773.97 ± 0.31 | 769.46 ± 0.31 | 764.95 ± 0.31 | 755.83 ± 0.31 | 0.55 ± 0.007 | 0.524 ± 0.007 | 0.503 ± 0.007 | 0.463 ± 0.006 | 0.431 ± 0.006
x2 = 0.8414 | 759.95 ± 0.28 | 755.41 ± 0.28 | 750.85 ± 0.28 | 746.25 ± 0.28 | 737.14 ± 0.28 | 0.476 ± 0.006 | 0.455 ± 0.006 | 0.433 ± 0.006 | 0.406 ± 0.006 | 0.373 ± 0.005
x2 = 0.9136 | 743.67 ± 0.26 | 739.07 ± 0.26 | 734.45 ± 0.27 | 729.79 ± 0.27 | 720.56 ± 0.27 | 0.419 ± 0.006 | 0.399 ± 0.005 | 0.38 ± 0.005 | 0.368 ± 0.005 | 0.327 ± 0.004
